Assay results as given in ChEMBL document CHEMBL4229455, “Synthesis and anticancer activity of novel bisindolylhydroxymaleimide derivatives with potent GSK-3 kinase inhibition” (Bioorg Med Chem, 2018).

How the values were obtained:
Format in all cases: functional
ACHN = test: Cytotoxicity against human ACHN cells assessed as cell growth at 1 uM after 48 hrs by SRB assay relative to control; conditions: read-out: Activity
NCI-H322M [1] = test: Cytotoxicity against human NCI-H322M cells assessed as cell growth at 1 uM after 48 hrs by SRB assay relative to control; conditions: read-out: Activity
NCI-H322M [2] = test: Cytotoxicity against human NCI-H322M cells after 48 hrs by SRB assay
U-251 [3] = test: Cytotoxicity against human U251 cells assessed as cell growth at 0.1 uM after 48 hrs by SRB assay relative to control; conditions: U-251, 48 h, read-out: Activity
COLO 205 = test: Cytotoxicity against human COLO205 cells assessed as cell growth at 0.1 uM after 48 hrs by SRB assay relative to control; conditions: COLO 205, 48 h, read-out: Activity
SW-620 = test: Cytotoxicity against human SW620 cells after 48 hrs by SRB assay; conditions: SW-620, 48 h
Hs-578T = test: Cytotoxicity against human Hs 578T cells assessed as cell growth at 1 uM after 48 hrs by SRB assay relative to control; conditions: read-out: Activity
U-251 [4] = test: Cytotoxicity against human U251 cells assessed as cell growth at 100 uM after 48 hrs by SRB assay relative to control; conditions: U-251, 48 h, read-out: Activity
KM12 = test: Cytotoxicity against human KM12 cells after 48 hrs by SRB assay; conditions: KM12, 48 h
NCI-H226 = test: Cytotoxicity against human NCI-H226 cells after 48 hrs by SRB assay; conditions: NCI-H226, 48 h
DU-145 = test: Cytotoxicity against human DU145 cells assessed as cell growth at 100 uM after 48 hrs by SRB assay relative to control; conditions: DU-145, 48 h, read-out: Activity
U-251 [5] = test: Cytotoxicity against human U251 cells after 48 hrs by SRB assay; conditions: U-251, 48 h
MDA-MB-435 = test: Cytotoxicity against human MDA-MB-435 cells assessed as cell growth at 0.01 uM after 48 hrs by SRB assay relative to control; conditions: MDA-MB-435, 48 h, read-out: Activity
NCI-H322M [6] = test: Cytotoxicity against human NCI-H322M cells assessed as cell growth at 100 uM after 48 hrs by SRB assay relative to control; conditions: read-out: Activity
SK-OV-3 [7] = test: Cytotoxicity against human SKOV3 cells assessed as cell growth at 0.1 uM after 48 hrs by SRB assay relative to control; conditions: SK-OV-3, 48 h, read-out: Activity
Malme-3M = test: Cytotoxicity against human MALME-3M cells after 48 hrs by SRB assay
M14 = test: Cytotoxicity against human M14 cells after 48 hrs by SRB assay; conditions: M14, 48 h
SK-MEL-5 = test: Cytotoxicity against human SK-MEL-5 cells assessed as cell growth at 1 uM after 48 hrs by SRB assay relative to control; conditions: SK-MEL-5, 48 h, read-out: Activity
NCI-H322M [8] = test: Cytotoxicity against human NCI-H322M cells assessed as cell growth at 0.01 uM after 48 hrs by SRB assay relative to control; conditions: read-out: Activity
HOP-62 = test: Cytotoxicity against human HOP62 cells assessed as cell growth at 100 uM after 48 hrs by SRB assay relative to control; conditions: HOP-62, 48 h, read-out: Activity
U-251 [9] = test: Cytotoxicity against human U251 cells assessed as cell growth at 0.01 uM after 48 hrs by SRB assay relative to control; conditions: U-251, 48 h, read-out: Activity
CAKI-1 = test: Cytotoxicity against human Caki1 cells assessed as cell growth at 0.1 uM after 48 hrs by SRB assay relative to control; conditions: CAKI-1, 48 h, read-out: Activity
U-251 [10] = test: Cytotoxicity against human U251 cells assessed as cell growth at 1 uM after 48 hrs by SRB assay relative to control; conditions: U-251, 48 h, read-out: Activity
NCI-H322M [11] = test: Cytotoxicity against human NCI-H322M cells assessed as cell growth at 0.1 uM after 48 hrs by SRB assay relative to control; conditions: read-out: Activity
OVCAR-4 [12] = test: Cytotoxicity against human OVCAR4 cells assessed as cell growth at 1 uM after 48 hrs by SRB assay relative to control; conditions: OVCAR-4, 48 h, read-out: Activity
OVCAR-4 [13] = test: Cytotoxicity against human OVCAR4 cells assessed as cell growth at 0.1 uM after 48 hrs by SRB assay relative to control; conditions: OVCAR-4, 48 h, read-out: Activity
OVCAR-4 [14] = test: Cytotoxicity against human OVCAR4 cells assessed as cell growth at 0.01 uM after 48 hrs by SRB assay relative to control; conditions: OVCAR-4, 48 h, read-out: Activity
EKVX [15] = test: Cytotoxicity against human EKVX cells after 48 hrs by SRB assay
OVCAR-4 [16] = test: Cytotoxicity against human OVCAR4 cells after 48 hrs by SRB assay; conditions: OVCAR-4, 48 h
SK-OV-3 [17] = test: Cytotoxicity against human SKOV3 cells assessed as cell growth at 100 uM after 48 hrs by SRB assay relative to control; conditions: SK-OV-3, 48 h, read-out: Activity
OVCAR-4 [18] = test: Cytotoxicity against human OVCAR4 cells assessed as cell growth at 100 uM after 48 hrs by SRB assay relative to control; conditions: OVCAR-4, 48 h, read-out: Activity
EKVX [19] = test: Cytotoxicity against human EKVX cells assessed as cell growth at 0.01 uM after 48 hrs by SRB assay relative to control; conditions: read-out: Activity
EKVX [20] = test: Cytotoxicity against human EKVX cells assessed as cell growth at 100 uM after 48 hrs by SRB assay relative to control; conditions: read-out: Activity
EKVX [21] = test: Cytotoxicity against human EKVX cells assessed as cell growth at 0.1 uM after 48 hrs by SRB assay relative to control; conditions: read-out: Activity
EKVX [22] = test: Cytotoxicity against human EKVX cells assessed as cell growth at 1 uM after 48 hrs by SRB assay relative to control; conditions: read-out: Activity
[23] = read-out: LC50 (the source's name)

Row | SMILES | growth at 1 µM (ACHN) [%] | growth at 0.1 µM (COLO 205) [%] | GI50 (SW-620) [µM] | TGI (SW-620) [µM] | growth at 1 µM (Hs-578T) [%] | GI50 (KM12) [µM] | TGI (KM12) [µM] | GI50 (NCI-H226) [µM] | TGI (NCI-H226) [µM] | growth at 100 µM (DU-145) [%] | growth at 0.01 µM (MDA-MB-435) [%] | growth at 0.1 µM (SK-OV-3 [7]) [%] | GI50 (Malme-3M) [µM] | TGI (Malme-3M) [µM] | GI50 (M14) [µM] | TGI (M14) [µM] | growth at 1 µM (SK-MEL-5) [%] | growth at 100 µM (HOP-62) [%] | growth at 0.1 µM (CAKI-1) [%] | other results
1 | N#CCCCCCn1cc(C2=C(c3cn(CCCCCC#N)c4ccccc34)C(=O)N(O)C2=O)c2ccccc21 | 88 | 93 | 4.76 | > 100 | 88 | 4.78 | 33.1 | 7.26 | 70.8 | 12 | 95 | 88 | 12 | 62.8 | 4.42 | 34 | 92 | 4 | 95 | growth at 1 µM (NCI-H322M [1]): 100%; GI50 (NCI-H322M [2]): 8.53 µM; TGI (NCI-H322M [2]): 84.6 µM; CC50 (NCI-H322M [2]; [23]): > 100 µM; growth at 0.1 µM (U-251 [3]): 100%; LC50 (SW-620): > 100 µM; growth at 100 µM (U-251 [4]): 5%; LC50 (KM12): > 100 µM; LC50 (NCI-H226): > 100 µM; GI50 (U-251 [5]): 4.65 µM; TGI (U-251 [5]): > 100 µM; CC50 (U-251 [5]; [23]): > 100 µM; growth at 100 µM (NCI-H322M [6]): -4%; LC50 (concentration killing 50% of cells) (Malme-3M): > 100 µM; LC50 (concentration killing 50% of cells) (M14): > 100 µM; growth at 0.01 µM (NCI-H322M [8]): 98%; growth at 0.01 µM (U-251 [9]): 102%; growth at 1 µM (U-251 [10]): 100%; growth at 0.1 µM (NCI-H322M [11]): 99%
2 | Cn1cc(C2=C(c3cn(C)c4ncccc34)C(=O)NC2=O)c2ccccc21 | 87 | 109 | 3.61 | 32.6 | 48 | 2.89 | 13.4 | 2.24 | 6.84 | -28 | 98 | 102 | 5.47 | 52.4 | 3.84 | 12.5 | 89 | -17 | 86 | growth at 1 µM (OVCAR-4 [12]): 85%; growth at 0.1 µM (OVCAR-4 [13]): 87%; growth at 0.01 µM (OVCAR-4 [14]): 102%; GI50 (EKVX [15]): 1.83 µM; TGI (EKVX [15]): 15.1 µM; CC50 (EKVX [15]; [23]): > 100 µM; GI50 (OVCAR-4 [16]): 4.86 µM; TGI (OVCAR-4 [16]): 83.1 µM; CC50 (OVCAR-4 [16]; [23]): > 100 µM; growth at 100 µM (SK-OV-3 [17]): -7%; growth at 100 µM (OVCAR-4 [18]): -3%; growth at 0.01 µM (EKVX [19]): 91%; growth at 100 µM (EKVX [20]): -42%; growth at 0.1 µM (EKVX [21]): 84%; growth at 1 µM (EKVX [22]): 65%
